# Measurements: article PMC6440567 (Clinical and Translational Science, 2018)
# How the values were obtained:
# [1] = taken to be; ref not given; cited from earlier work
# [2] = system: ceftazidime‐resistant P. aeruginosa; conditions: thigh and lung infection; cited from earlier work
# [3] = system: ceftazidime‐resistant Enterobacteriaceae; conditions: cited from earlier work
# OAT3 = conditions: in vitro; cited from earlier work
# [4] = system: organic anion transporter 1 (OAT1); conditions: in vitro; cited from earlier work
# [5] = Individual predicted steady‐state exposures; format: in vivo, human; conditions: for AUC / Cmax: human, plasma; for AUC: AUCss,0–24 geometric mean (CV)
# [6] = Final avibactam PopPK model; format: in vivo, human; conditions: for clearance: human, plasma, intravenous
# [7] = non‐Chinese, non‐Japanese Asians vs other racial origins
compound,measurement,setting,value
"NC(=O)[C@@H]1CC[C@@H]2CN1C(=O)N2OS(=O)(=O)O [Avibactam, avibactam]",free plasma concentrations as % of total plasma concentrations,[1],92%
same,%fT > 1 mg/L associated with 2log10 reductions in bacterial density,[2],20–55%
same,%fT > 1 mg/L associated with stasis,[2],16–24%
same,C T that restored the activity of ceftazidime,"[3]; avibactam concentration fixed, varying concentrations of ceftazidime",≤ 0.5 mg/L
same,C T sufficient to restore ceftazidime activity,"[3]; fixed concentrations of ceftazidime, varying concentrations of avibactam",0.15 to 0.28 mg/L
same,transporter substrate,OAT3,substrate
same,transporter substrate,[4],substrate
same,AUC,[5]; Age (years) 18–65,131 µg·h/mL
same,AUC,[5]; Age (years) > 65–75,156 µg·h/mL
same,AUC,[5]; Age (years) > 75–89,180 µg·h/mL
same,AUC,[5]; Asian population: China (only),153 µg·h/mL
same,AUC,[5]; Asian population: Japan,164 µg·h/mL
same,AUC,[5]; Baseline WBC count Missing,147 µg·h/mL
same,AUC,[5]; Concomitant use of OAT1/OAT3 inhibitor(s): No,142 µg·h/mL
same,AUC,[5]; Concomitant use of OAT1/OAT3 inhibitor(s): Yes,150 µg·h/mL
same,AUC,[5]; Fever at baseline: Missing,132 µg·h/mL
same,AUC,[5]; Fever at baseline: No,146 µg·h/mL
same,AUC,[5]; Fever at baseline: Yes,134 µg·h/mL
same,AUC,[5]; Obesity I (29.9 ≤ BMI < 34.9 kg/m^2),136 µg·h/mL
same,AUC,[5]; Obesity II (34.9 ≤ BMI < 39.9 kg/m^2),141 µg·h/mL
same,AUC,[5]; Obesity III (BMI ≥ 39.9 kg/m^2),115 µg·h/mL
same,AUC,[5]; Obesity: Missing,172 µg·h/mL
same,AUC,[5]; Obesity: Normal,144 µg·h/mL
same,AUC,[5]; Race: Asian (non‐Chinese; non‐Japanese),166 µg·h/mL
same,AUC,[5]; Race: Chinese and Taiwanese,151 µg·h/mL
same,AUC,[5]; Race: Japanese,164 µg·h/mL
same,AUC,[5]; Race: White/other,135 µg·h/mL
same,Cmax,"[5]; C max,ss geometric mean (CV), Age (years) 18–65",12500 ng/mL
same,Cmax,"[5]; C max,ss geometric mean (CV), Age (years) > 65–75",13200 ng/mL
same,Cmax,"[5]; C max,ss geometric mean (CV), Age (years) > 75–89",14000 ng/mL
same,Cmax,"[5]; C max,ss geometric mean (CV), Asian population: China (only)",14900 ng/mL
same,Cmax,"[5]; C max,ss geometric mean (CV), Asian population: Japan",16100 ng/mL
same,Cmax,"[5]; C max,ss geometric mean (CV), Asian population: Korea",13000 ng/mL
same,Cmax,"[5]; C max,ss geometric mean (CV), Concomitant use of OAT1/OAT3 inhibitor(s): No",12800 ng/mL
same,Cmax,"[5]; C max,ss geometric mean (CV), Concomitant use of OAT1/OAT3 inhibitor(s): Yes",13700 ng/mL
same,Cmax,"[5]; C max,ss geometric mean (CV), Fever at baseline: Missing",11800 ng/mL
same,Cmax,"[5]; C max,ss geometric mean (CV), Fever at baseline: No",12900 ng/mL
same,Cmax,"[5]; C max,ss geometric mean (CV), Fever at baseline: Yes",12200 ng/mL
same,Cmax,"[5]; C max,ss geometric mean (CV), Obesity I (29.9 ≤ BMI < 34.9 kg/m^2)",12000 ng/mL
same,Cmax,"[5]; C max,ss geometric mean (CV), Obesity II (34.9 ≤ BMI < 39.9 kg/m^2)",13200 ng/mL
same,Cmax,"[5]; C max,ss geometric mean (CV), Obesity III (BMI ≥ 39.9 kg/m^2)",9700 ng/mL
same,Cmax,"[5]; C max,ss geometric mean (CV), Obesity: Missing",14200 ng/mL
same,Cmax,"[5]; C max,ss geometric mean (CV), Obesity: Normal",13000 ng/mL
same,Cmax,"[5]; C max,ss geometric mean (CV), Race: Asian (non‐Chinese; non‐Japanese)",14900 ng/mL
same,Cmax,"[5]; C max,ss geometric mean (CV), Race: Chinese and Taiwanese",14700 ng/mL
same,Cmax,"[5]; C max,ss geometric mean (CV), Race: Japanese",16100 ng/mL
same,Cmax,"[5]; C max,ss geometric mean (CV), Race: White/other",12000 ng/mL
same,Cmax,[5]; intravenous,12700 ng/mL
same,AUC,"[5]; intravenous, 187.5 mg, Day 3 CrCL 8–15 mL/min (750‐187.5 mg q24 h)",86.3 µg·h/mL
same,Cmax,"[5]; intravenous, 187.5 mg, C max,ss geometric mean (CV), Day 3 CrCL 8–15 mL/min (750‐187.5 mg q24 h)",6300 ng/mL
same,AUC,"[5]; intravenous, 500 mg, Day 3 CrCL > 150–180 mL/min (2000‐500 mg q8 h)",103 µg·h/mL
same,Cmax,"[5]; intravenous, 500 mg, C max,ss geometric mean (CV), Day 3 CrCL > 150–180 mL/min (2000‐500 mg q8 h)",9900 ng/mL
same,AUC,"[5]; intravenous, Asian population: Korea",144 µg·h/mL
same,AUC,"[5]; intravenous, Asian population: Taiwan",115 µg·h/mL
same,AUC,"[5]; intravenous, Asian population: Vietnam",146 µg·h/mL
same,AUC,"[5]; intravenous, Bacteremia at baseline: No",141 µg·h/mL
same,AUC,"[5]; intravenous, Bacteremia at baseline: Yes",161 µg·h/mL
same,AUC,"[5]; intravenous, Baseline APACHE II score > 10",170 µg·h/mL
same,AUC,"[5]; intravenous, Baseline APACHE II score Missing",138 µg·h/mL
same,AUC,"[5]; intravenous, Baseline APACHE II score ≤ 10",131 µg·h/mL
same,AUC,"[5]; intravenous, Baseline WBC count (cells/μL) > 12,000",136 µg·h/mL
same,AUC,"[5]; intravenous, Baseline WBC count (cells/μL) ≤ 12,000",145 µg·h/mL
same,AUC,"[5]; intravenous, Patient population: NP",169 µg·h/mL
same,AUC,"[5]; intravenous, Patient population: Non‐VAP",183 µg·h/mL
same,AUC,"[5]; intravenous, Patient population: VAP",146 µg·h/mL
same,AUC,"[5]; intravenous, Patient population: cIAI",132 µg·h/mL
same,AUC,"[5]; intravenous, Patient population: cUTI",138 µg·h/mL
same,AUC,"[5]; intravenous, SIRS at baseline: Missing",129 µg·h/mL
same,AUC,"[5]; intravenous, SIRS at baseline: No",143 µg·h/mL
same,AUC,"[5]; intravenous, SIRS at baseline: Yes",142 µg·h/mL
same,Cmax,"[5]; intravenous, C max,ss geometric mean (CV), Asian population: Taiwan",10200 ng/mL
same,Cmax,"[5]; intravenous, C max,ss geometric mean (CV), Asian population: Vietnam",14600 ng/mL
same,Cmax,"[5]; intravenous, C max,ss geometric mean (CV), Bacteremia at baseline: No",12600 ng/mL
same,Cmax,"[5]; intravenous, C max,ss geometric mean (CV), Bacteremia at baseline: Yes",14200 ng/mL
same,Cmax,"[5]; intravenous, C max,ss geometric mean (CV), Baseline APACHE II score > 10",14300 ng/mL
same,Cmax,"[5]; intravenous, C max,ss geometric mean (CV), Baseline APACHE II score Missing",12100 ng/mL
same,Cmax,"[5]; intravenous, C max,ss geometric mean (CV), Baseline WBC count (cells/μL) > 12,000",12500 ng/mL
same,Cmax,"[5]; intravenous, C max,ss geometric mean (CV), Baseline WBC count (cells/μL) ≤ 12,000",12800 ng/mL
same,Cmax,"[5]; intravenous, C max,ss geometric mean (CV), Patient population: NP",14200 ng/mL
same,Cmax,"[5]; intravenous, C max,ss geometric mean (CV), Patient population: Non‐VAP",15500 ng/mL
same,Cmax,"[5]; intravenous, C max,ss geometric mean (CV), Patient population: VAP",12000 ng/mL
same,Cmax,"[5]; intravenous, C max,ss geometric mean (CV), Patient population: cIAI",12800 ng/mL
same,Cmax,"[5]; intravenous, C max,ss geometric mean (CV), Patient population: cUTI",12100 ng/mL
same,Cmax,"[5]; intravenous, C max,ss geometric mean (CV), SIRS at baseline: Missing",12100 ng/mL
same,Cmax,"[5]; intravenous, C max,ss geometric mean (CV), SIRS at baseline: No",12800 ng/mL
same,Cmax,"[5]; intravenous, C max,ss geometric mean (CV), SIRS at baseline: Yes",12600 ng/mL
same,difference in steady‐state exposure vs. healthy volunteers,[5]; most patient subgroups,≤ 20%
same,"lower C max,ss",[5]; patients with VAP vs non‐VAP patients,~ 20%
same,lower V c,[6]; 10th percentile of body weight (51 kg) vs median weight (70 kg),29%
same,higher V c,[6]; 90th percentile of body weight (95 kg) vs median weight (70 kg),39%
same,decrease in CL,[6]; APACHE II score > 10,19.7%
same,increase in CL for an increase of 100 mL/min in CrCL over 80 mL/min,[6]; CrCL ≥ 80 mL/min,27.9%
same,clearance,"[6]; CL, patients with ESRD, off dialysis",1.13 mL/min
same,clearance,"[6]; CL, patients with ESRD, on‐dialysis",347 mL/min
same,clearance,"[6]; θ1: CL, typical value",170 mL/min
same,clearance,[6]; θ6: CL estimate for patients on dialysis,347 mL/min
same,"θ9: Population effect on V c (cIAI, phase II), V c*(1 + θ9)",[6]; in vivo,1.92
same,"θ11: Population effect on V c (cUTI), V c*(1 + θ11)",[6]; in vivo,0.434
same,"θ12: Population effect on V c (cIAI, phase III, NP), V c*(1 + θ11)",[6]; in vivo,0.329
same,θ14: WT on V c (WT/70.0)^θ14,[6]; in vivo,1.08
same,"θ 28: NPv on V c,V c*(1 + θ28)",[6]; in vivo,0.175
same,increase in AUC,[6]; [7],9.5%
same,lower CL,[6]; [7],8.65%
same,higher V c,[6]; patients with NPv vs non‐NPv patients,17.5%
same,higher V c,[6]; patients with cUTI vs healthy subjects,43.4%
same,higher V c,[6]; phase III patients with cIAI and patients with NP vs healthy subjects,32.9%
same,θ2: V c,[6]; typical value,11.1 L
same,θ3: Q,[6]; typical value,5.44 L/h
same,θ4: V p,[6]; typical value,6.91 L
